Reference: patent US6864396B2, “Substituted pentacene semiconductors” (3M Innovative Properties Company, priority 2001, dated 2005)

Format: physicochemical
Conditions: for Weight %: solubility in THF, 25° C., calculated with extinction coefficient of pentacene
Description: The solubility of several alkyl substituted pentacenes in tetrahydrofuran (THF) was compared with that of pentacene. Samples were prepared by adding excess alkyl substituted pentacene compounder pentacene compound to newly opened THF and sonicating for 20-30 seconds to facilitate dissolution. All handling of the solutions and solvent was done in a nitrogen-purged environment. Solutions were transferred to a 1 cm cuvette with a disposable pipette. The cuvette was then placed in a spectrophotometer for 5 minutes for temperature equilibration (25° C.). Absorbance measurements were made using an Hewlett Packard 8453 photodiode array spectrophotometer over a range of wavelengths from 200 to 1100 nm. THF was used as a reference blank. All of the spectrographs were corrected for baseline differences, which possibly resulted from excess compound in suspension. In calculating the concentration and weight % values, the extinction coefficient of pentacene that is, 10^3.76 at 577 nm was used for all substituted pentacenes.

| SMILES | Absorbance at 577 nm | Concentration [µM] | Relative Absorbance | Solubility in THF compared with pentacene, 2,9-dimethylpentacene, 2,10-dimethylpentacene, 2,9-didodecylpentacene | Weight % |
| --- | --- | --- | --- | --- | --- |
| CCCCCCCCCc1ccc2cc3cc4cc5cc(CCCCCCCCC)ccc5cc4cc3cc2c1 [2,9-dinonylpentacene, 2,9-Dinonylpentacene] | 1.398 | 243 | 9.562 | significantly more soluble | 1.45 × 10^−2 Weight % |
| CCCCCCCCCCCCc1ccc2cc3cc4cc5cc(CCCCCCCCCCCC)ccc5cc4cc3cc2c1 [2,9-didodecylpentacene, 2,9-Didodecylpentacene] | 0.061 | 10.7 | 0.420 |  | 7.38 × 10^−4 Weight % |
| c1ccc2cc3cc4cc5ccccc5cc4cc3cc2c1 [pentacene] | 0.146 | 25.4 | 1.000 |  | 7.95 × 10^−4 Weight % |
| CCCCCCc1ccc2cc3cc4cc5cc(CCCCCC)ccc5cc4cc3cc2c1 [2,9-dihexylpentacene, 2,9-Dihexylpentacene] | 0.987 | 172 | 6.752 | significantly more soluble | 8.62 × 10^−3 Weight % |
| CC(CCc1ccc2cc3cc4cc5cc(CCC(C)CC(C)(C)C)ccc5cc4cc3cc2c1)CC(C)(C)C (centres unmarked) [2,9-di(3,5,5-trimethylhexyl)pentacene, 2,9-Di(3,5,5-trimethylhexyl)pentacene] |  | 3350 |  | significantly more soluble | 2.00 × 10^−1 Weight % |
| Cc1ccc2cc3cc4cc5ccc(C)cc5cc4cc3cc2c1 [2,10-dimethylpentacene, 2,10-Dimethylpentacene] | 0.035 | 6.06 | 0.239 |  | 2.77 × 10^−4 Weight % |
| Cc1ccc2cc3cc4cc5cc(C)ccc5cc4cc3cc2c1 [2,9-dimethylpentacene, 2,9-Dimethylpentacene] | 0.021 | 3.59 | 0.142 |  | 1.64 × 10^−4 Weight % |
